Data taken from publication PMC8815882, “Screening the pandemic response box identified benzimidazole carbamates, Olorofim and ravuconazole as promising drug candidates for the treatment of eumycetoma” (PLoS Neglected Tropical Diseases, 2022).
Values after ≈ are worked out from the molar mass of the structure shown. Read-outs that look alike come from different tables or passages of the source.

Experiments:
[1] = system: ten different M. mycetomatis isolates; test: MIC / MIC50 determination (XTT) in ten M. mycetomatis isolates; type: cell-based, Madurella mycetomatis; details: Madurella mycetomatis
[2] = system: M. mycetomatis isolate MM55; test: M. mycetomatis grain infection model in G. mellonella larvae, survival; type: in vivo, Galleria mellonella; design: In vivo efficacy, Larvae survival %: concentration or dose not given beside the values
[3] = system: M. mycetomatis genome strain MM55; test: CLSI M38-A2 based in vitro susceptibility screening (XTT or resazurin), growth at fixed concentration; type: cell-based, Madurella mycetomatis; details: Madurella mycetomatis; for Percent fungal survival at 100 µM: replicate 2, M. mycetomatis MM55, read-out: Percentage survival at 100um, 100 uM A (second replicate column)
M. mycetomatis MM55 = test: IC50 determination, 2-fold dilution series 16 to 0.03125 μM; type: cell-based, Madurella mycetomatis; details: for IC50 / IC90: Madurella mycetomatis
[4] = median MIC over ten M. mycetomatis isolates, no asterisk, read-out: MIC50
[5] = isolate CBS247.48, read-out: MIC CBS247.48
[6] = isolate MM14, read-out: MIC MM14
[7] = isolate MM45, read-out: MIC MM45
[8] = isolate MM55, read-out: MIC MM55
[9] = isolate ParijsAl1, read-out: MIC ParijsAl1
[10] = isolate Peru72012, read-out: MIC Peru72012
[11] = MM55, Table 2, M. mycetomatis MM55, read-out: IC50
[12] = over the tested M. mycetomatis isolates, read-out: MIC50 mean
[13] = G. mellonella larvae infected with M. mycetomatis
[14] = 25 uM, mean of three, M. mycetomatis MM55, read-out: Percentage survival at 25um, 25 uM mean
[15] = 25 uM, replicate A, M. mycetomatis MM55, read-out: Percentage survival at 25um, 25 um A
[16] = 25 uM, replicate B, M. mycetomatis MM55, read-out: Percentage survival at 25um, 25 uM B
[17] = 25 uM, replicate C, M. mycetomatis MM55, read-out: Percentage survival at 25um, 25 uM C
[18] = mean of three, M. mycetomatis MM55, read-out: Percentage survival at 100um, 100 uM mean
[19] = replicate 1, M. mycetomatis MM55, read-out: Percentage survival at 100um, 100 uM A (first replicate column)
[20] = replicate 3, M. mycetomatis MM55, read-out: Percentage survival at 100um, 100 uM A (third replicate column)
[21] = MM55, mean of replicates, read-out: IC50 mean
[22] = MM55, mean of replicates, read-out: IC90 mean
[23] = MM55, replicate 1, read-out: IC50 1 um
[24] = MM55, replicate 1, read-out: IC90 1 um
[25] = MM55, replicate 2, read-out: IC50 2 um
[26] = MM55, replicate 2, read-out: IC90 2 um
[27] = MM55, replicate 3, read-out: IC50 3 um
[28] = MM55, replicate 3, read-out: IC90 3 um

## COC(=O)Nc1nc2c(C)cccc2[nH]1 [MMV1782387]
[1]; Table 3 and Fig 5, benzimidazole carbamates, M. mycetomatis, read-out: MIC50
  MIC50: 4 µM (≈ 0.821 µg/mL)
[1]; [4]
  MIC50: 4 µM (≈ 0.821 µg/mL)
[1]; over the isolates tested, read-out: MIC50 mean
  MIC50: 4 µM (≈ 0.821 µg/mL)
[1]; [5]
  MIC: 4 µM (≈ 0.821 µg/mL)
[1]; [6]
  MIC: 4 µM (≈ 0.821 µg/mL)
[1]; [7]
  MIC: 4 µM (≈ 0.821 µg/mL)
[1]; [8]
  MIC: 4 µM (≈ 0.821 µg/mL)
[1]; isolate P1, read-out: MIC P1
  MIC: 4 µM (≈ 0.821 µg/mL)
[1]; [9]
  MIC: 4 µM (≈ 0.821 µg/mL)
[1]; [10]
  MIC: 4 µM (≈ 0.821 µg/mL)
[1]; isolate So1, read-out: MIC So1
  MIC: 4 µM (≈ 0.821 µg/mL)
[1]; isolate i1, read-out: MIC i1
  MIC: 4 µM (≈ 0.821 µg/mL)
[1]; isolate i11, read-out: MIC i11
  MIC: 4 µM (≈ 0.821 µg/mL)
[2]; 20 μM per larvae at 4, 28, 52 h after infection, day ten
  Larvae survival rate on day ten: 28.9%
[2]; 20 μM per larvae, vs infected control, day four
  Effect on larvae survival Day 4 (words): Increase survival
[2]; 20 μM per larvae, vs infected control, day ten
  Effect on larvae survival Day 10 (words): able to increase larvae survival
[2]; in vivo
  In vivo efficacy, Enhanced survival compared to control?: yes **
  In vivo efficacy, Larvae survival %: 28.9%
[3]; 25 uM, mean, read-out: Percentage survival at 25um, 25 uM mean
  activity at 25 µM: 4.41%
[3]; 25 uM, replicate A, read-out: Percentage survival at 25um, 25 um A
  activity at 25 µM: 0.37%
[3]; 25 uM, replicate B, read-out: Percentage survival at 25um, 25 uM B
  activity at 25 µM: 7.58%
[3]; 25 uM, replicate C, read-out: Percentage survival at 25um, 25 uM C
  activity at 25 µM: 5.29%
[3]; mean, read-out: Percentage survival at 100um, 100 uM mean
  activity at 100 µM: 15.6%
[3]; replicate (first column), read-out: Percentage survival at 100um, 100 uM A
  activity at 100 µM: 4.59%
[3]; replicate (second column), read-out: Percentage survival at 100um, 100 uM A
  activity at 100 µM: 6.95%
[3]; replicate (third column), read-out: Percentage survival at 100um, 100 uM A
  activity at 100 µM: 35.2%
M. mycetomatis MM55
  Drug static or cidal: Static
M. mycetomatis MM55; [11]
  IC50: 3.22 µM
M. mycetomatis MM55; MM55, mean, read-out: IC50 mean
  IC50: 3.22 µM
M. mycetomatis MM55; MM55, read-out: IC90 mean
  IC90: > 25 µM
M. mycetomatis MM55; MM55, replicate 1, read-out: IC50 1
  IC50: 2.88 µM
M. mycetomatis MM55; MM55, replicate 1, read-out: IC90 1
  IC90: > 25 µM
M. mycetomatis MM55; MM55, replicate 2, read-out: IC50 2
  IC50: 3.52 µM
M. mycetomatis MM55; MM55, replicate 2, read-out: IC90 2
  IC90: 6.2 µM
M. mycetomatis MM55; MM55, replicate 3, read-out: IC50 3
  IC50: 3.25 µM
M. mycetomatis MM55; MM55, replicate 3, read-out: IC90 3
  IC90: > 25 µM

## CCC(C)(C)c1ccc(CC(C)CN2C[C@@H](C)O[C@@H](C)C2)cc1 (stereo partly shown) [MMV1634358, Amorolfine, reference compound]
[1]; [4]
  MIC50: 4 µM (≈ 1.27 µg/mL)
[1]; [12]
  MIC50: 4 µM (≈ 1.27 µg/mL)
[1]; [5]
  MIC: 4 µM (≈ 1.27 µg/mL)
[1]; [6]
  MIC: 4 µM (≈ 1.27 µg/mL)
[1]; [7]
  MIC: 4 µM (≈ 1.27 µg/mL)
[1]; [8]
  MIC: 2 µM (≈ 0.635 µg/mL)
[1]; isolate P1, read-out: MIC P1
  MIC: > 16 µM
[1]; [9]
  MIC: 0.25 µM (≈ 0.0794 µg/mL)
[1]; [10]
  MIC: 16 µM (≈ 5.08 µg/mL)
[1]; isolate So1, read-out: MIC So1
  MIC: 2 µM (≈ 0.635 µg/mL)
[1]; isolate i1, read-out: MIC i1
  MIC: 2 µM (≈ 0.635 µg/mL)
[1]; isolate i11, read-out: MIC i11
  MIC: 16 µM (≈ 5.08 µg/mL)
[2]; [13]
  In vivo efficacy, Enhanced survival compared to control?: no
  In vivo efficacy, Larvae survival %: 11.1%
[3]; [14]
  activity at 25 µM: 0.888%
[3]; [15]
  activity at 25 µM: -0.194%
[3]; [16]
  activity at 25 µM: 0.287%
[3]; [17]
  activity at 25 µM: 2.57%
[3]; [18]
  activity at 100 µM: 8.96%
[3]; [19]
  activity at 100 µM: 0.903%
[3]
  Percent fungal survival at 100 µM: 2.35%
[3]; [20]
  activity at 100 µM: 23.6%
M. mycetomatis MM55; M. mycetomatis
  Drug static or cidal: Static
M. mycetomatis MM55; [11]
  IC50: 5.72 µM
M. mycetomatis MM55; [21]
  IC50: 5.72 µM
M. mycetomatis MM55; [22]
  IC90: 10.7 µM
M. mycetomatis MM55; [23]
  IC50: 2.45 µM
M. mycetomatis MM55; [24]
  IC90: 4.65 µM
M. mycetomatis MM55; [25]
  IC50: 11.7 µM
M. mycetomatis MM55; [26]
  IC90: 22.1 µM
M. mycetomatis MM55; [27]
  IC50: 3 µM
M. mycetomatis MM55; [28]
  IC90: 5.4 µM

## O=S(=O)(Nc1ccc(-n2cccc2)cc1)c1ccc(Cl)c(Cl)c1 [MMV1505642]
[1]; [4]
  MIC50: 16 µM (≈ 5.88 µg/mL)
[1]; [12]
  MIC50: 16 µM (≈ 5.88 µg/mL)
[1]; [5]
  MIC: > 16 µM
[1]; [6]
  MIC: 16 µM (≈ 5.88 µg/mL)
[1]; [7]
  MIC: 8 µM (≈ 2.94 µg/mL)
[1]; [8]
  MIC: 16 µM (≈ 5.88 µg/mL)
[1]; isolate P1, read-out: MIC P1
  MIC: 16 µM (≈ 5.88 µg/mL)
[1]; [9]
  MIC: > 16 µM
[1]; [10]
  MIC: 16 µM (≈ 5.88 µg/mL)
[1]; isolate So1, read-out: MIC So1
  MIC: > 16 µM
[1]; isolate i1, read-out: MIC i1
  MIC: 16 µM (≈ 5.88 µg/mL)
[1]; isolate i11, read-out: MIC i11
  MIC: 16 µM (≈ 5.88 µg/mL)
[3]; [14]
  activity at 25 µM: 0.829%
[3]; [15]
  activity at 25 µM: -1.91%
[3]; [16]
  activity at 25 µM: 1.17%
[3]; [17]
  activity at 25 µM: 3.22%
[3]; [18]
  activity at 100 µM: 1.07%
[3]; [19]
  activity at 100 µM: -0.332%
[3]
  Percent fungal survival at 100 µM: -0.607%
[3]; [20]
  activity at 100 µM: 4.16%
M. mycetomatis MM55; M. mycetomatis
  Drug static or cidal: Cidal
M. mycetomatis MM55; [11]
  IC50: 7.35 µM
M. mycetomatis MM55; [22]
  IC90: 21.8 µM
M. mycetomatis MM55; [23]
  IC50: 3.55 µM
M. mycetomatis MM55; [24]
  IC90: 20.3 µM
M. mycetomatis MM55; [25]
  IC50: 8.05 µM
M. mycetomatis MM55; [26]
  IC90: 22.6 µM
M. mycetomatis MM55; [27]
  IC50: 10.5 µM
M. mycetomatis MM55; [28]
  IC90: 22.6 µM

## Nc1nc(F)nc2c1ncn2[C@@H]1O[C@H](CO)[C@@H](O)[C@@H]1O [MMV637413, Fludarabine, reference compound]
[1]; [4]
  MIC50: 16 µM (≈ 4.56 µg/mL)
[1]; M. mycetomatis isolate CBS247.48, read-out: MIC CBS247.48
  MIC: 16 µM (≈ 4.56 µg/mL)
[1]; M. mycetomatis isolate MM14, read-out: MIC MM14
  MIC: 16 µM (≈ 4.56 µg/mL)
[1]; M. mycetomatis isolate MM45, read-out: MIC MM45
  MIC: > 16 µM
[1]; M. mycetomatis isolate MM55, read-out: MIC MM55
  MIC: 16 µM (≈ 4.56 µg/mL)
[1]; M. mycetomatis isolate P1, read-out: MIC P1
  MIC: > 16 µM
[1]; M. mycetomatis isolate ParijsAl1, read-out: MIC ParijsAl1
  MIC: > 16 µM
[1]; M. mycetomatis isolate Peru72012, read-out: MIC Peru72012
  MIC: > 16 µM
[1]; M. mycetomatis isolate So1, read-out: MIC So1
  MIC: 16 µM (≈ 4.56 µg/mL)
[1]; M. mycetomatis isolate i1, read-out: MIC i1
  MIC: > 16 µM
[1]; M. mycetomatis isolate i11, read-out: MIC i11
  MIC: 16 µM (≈ 4.56 µg/mL)
[1]; over ten M. mycetomatis isolates, read-out: MIC50 mean
  MIC50: 16 µM (≈ 4.56 µg/mL)
[3]; 25 uM, replicate A, MM55, read-out: Percentage survival at 25um, 25 um A
  activity at 25 µM: 3.41%
[3]; mean of replicates, MM55, read-out: Percentage survival at 100um, 100 uM mean
  activity at 100 µM: 3.82%
[3]; replicate 1, MM55, read-out: Percentage survival at 100um, 100 uM A
  activity at 100 µM: 1.86%
[3]; replicate 2, MM55, read-out: Percentage survival at 100um, 100 uM A
  activity at 100 µM: 1.98%
[3]; replicate 3, MM55, read-out: Percentage survival at 100um, 100 uM A
  activity at 100 µM: 7.64%
[3]; read-out: Percentage survival at 25um, 25 uM B
  activity at 25 µM: -4.01%
[3]; read-out: Percentage survival at 25um, 25 uM C
  activity at 25 µM: 6.32%
[3]; read-out: Percentage survival at 25um, 25 uM mean
  activity at 25 µM: 1.91%
M. mycetomatis MM55
  Drug static or cidal: Static
M. mycetomatis MM55; [21]
  IC50: 1.63 µM
M. mycetomatis MM55; MM55, IC90, mean of replicates, read-out: IC90 mean
  IC90: 8.89 µM
M. mycetomatis MM55; MM55, IC90, replicate 1, read-out: IC90 1 um
  IC90: 20.6 µM
M. mycetomatis MM55; MM55, IC90, replicate 2, read-out: IC90 2 um
  IC90: 1.28 µM
M. mycetomatis MM55; MM55, IC90, replicate 3, read-out: IC90 3 um
  IC90: 4.8 µM
M. mycetomatis MM55; [23]
  IC50: 1.8 µM
M. mycetomatis MM55; [25]
  IC50: 0.68 µM
M. mycetomatis MM55; [27]
  IC50: 2.4 µM
M. mycetomatis MM55; Table 2, M. mycetomatis MM55, read-out: IC50
  IC50: 1.63 µM
